Tests used:
CYP3A4 = experiment: Human CYP 3A4 induction assay (mRNA, cryopreserved human hepatocytes); assay type: in vitro ADME
Description: Human CYP 3A4 Induction Assay
Cryopreserved human hepatocytes were seeded in 96-well collagen coated plates at 70,000 cells per well in hepatocyte plating media (HPM, final concentrations: 1× Dulbecco's Modified Eagle's Medium, 0.1 μM dexamethasone, 10% fetal bovine serum, 1× ITS, 1×PSG) followed by incubation at 37° C. under 5% CO2 and 90% relative humidity for 2 days to allow hepatocytes to form a confluent layer. On Day 3, hepatocytes were treated with either test compound or rifampin (20 μM, positive control for CYP3A induction) prepared in hepatocyte incubation media ((HIM, final concentrations: 1× William's Medium E, 0.1 μM dexamethasone, 1×ITS, 1×PSG). Treatment was performed for 72 hours with either 2 concentrations (2 μM or 10 μM) or a range of concentrations (0.001 μM to 100 μM) of the test compound to obtain full dose-response curve. Fresh media containing the relevant concentrations of the test compound was replaced every day until the samples were processed. After 72 hours of incubation, samples were processed for mRNA analysis using bDNA technology using manufacturer's instructions (Affymetrix, Fremont, Calif.). Cell viability was tested at the end of the experiment using MTT assay kit (Roche Diagnostics, Basel, Switzerland). Data was analyzed and presented as percent of control (POC) and Emax and EC50 obtained when appropriate according to guidance from Center for Drug Evaluation and Research (CDER), 2006, Guidance for Industry, Drug Interaction Studies—Study Design, Data Analysis, and Implications for Dosing and Labeling.
Cryopreserved human hepatocytes were seeded in 96-well collagen coated plates at 70,000 cells per well in hepatocyte plating media (HPM, final concentrations: 1× Dulbecco's Modified Eagle's Medium, 0.1 μM dexamethasone, 10% fetal bovine serum, 1×ITS, 1×PSG) followed by incubation at 37° C. under 5% CO2 and 90% relative humidity for 2 days to allow hepatocytes to form a confluent layer. On Day 3, hepatocytes were treated with either test compound or rifampin (20 μM, positive control for CYP3A induction) prepared in hepatocyte incubation media ((HIM, final concentrations: 1× William's Medium E, 0.1 μM dexamethasone, 1×ITS, 1×PSG). Treatment was performed for 72 hours with either 2 concentrations (2 μM or 10 μM) or a range of concentrations (0.001 μM to 100 μM) of the test compound to obtain full dose-response curve. Fresh media containing the relevant concentrations of the test compound was replaced every day until the samples were processed. After 72 hours of incubation, samples were processed for mRNA analysis using bDNA technology using manufacturer's instructions (Affymetrix, Fremont, Calif.). Cell viability was tested at the end of the experiment using MTT assay kit (Roche Diagnostics, Basel, Switzerland). Data was analyzed and presented as percent of control (POC) and Emax and EC50 obtained when appropriate, as described in Halladay, J. et al, 2012, An “all-inclusive” 96-well cytochrome P450 induction method: Measuring enzyme activity, mRNA levels, protein levels, and cytotoxicity from one well using cryopreserved human hepatocytes, Pharmacological and Toxicological Methods, 66:270-275.
The cytochrome P450 (CYP) is a well-known superfamily of enzymes that are responsible for the oxidative and reductive metabolic transformation of medications used in clinical practice. In addition, the CYP enzymes are commonly associated with causing many clinically relevant drug-drug interactions. Of the CYP enzymes, CYP3A4 is not only the most prevalent CYP enzyme in the liver and intestine, but is responsible for metabolism and elimination of approximately 50% of marketed drugs. In addition, CYP3A4 activity can be induced (or increased) or inhibited (decreased) in response to administration of certain drugs, thereby affecting concentrations of their own or certain concomitant drugs present in the body. […]

Human NaV1.7 = target: T1, Human NaV1.7 (Homo sapiens, UniProt Q15858); experiment: Ionworks Barracuda (IWB) automated patch clamp assay; assay type: cell-based; settings: human NaV1.7 currents in HEK cells, population patch clamp, state- and use-dependent voltage protocol; read-out: hNaV1.7 IWB-U IC50
T1 construct: expressed in transfected cells; host or cells: Spiking HEK cells (without Kir2.1 transfection)
T1 sequence (Q15858 whole entry): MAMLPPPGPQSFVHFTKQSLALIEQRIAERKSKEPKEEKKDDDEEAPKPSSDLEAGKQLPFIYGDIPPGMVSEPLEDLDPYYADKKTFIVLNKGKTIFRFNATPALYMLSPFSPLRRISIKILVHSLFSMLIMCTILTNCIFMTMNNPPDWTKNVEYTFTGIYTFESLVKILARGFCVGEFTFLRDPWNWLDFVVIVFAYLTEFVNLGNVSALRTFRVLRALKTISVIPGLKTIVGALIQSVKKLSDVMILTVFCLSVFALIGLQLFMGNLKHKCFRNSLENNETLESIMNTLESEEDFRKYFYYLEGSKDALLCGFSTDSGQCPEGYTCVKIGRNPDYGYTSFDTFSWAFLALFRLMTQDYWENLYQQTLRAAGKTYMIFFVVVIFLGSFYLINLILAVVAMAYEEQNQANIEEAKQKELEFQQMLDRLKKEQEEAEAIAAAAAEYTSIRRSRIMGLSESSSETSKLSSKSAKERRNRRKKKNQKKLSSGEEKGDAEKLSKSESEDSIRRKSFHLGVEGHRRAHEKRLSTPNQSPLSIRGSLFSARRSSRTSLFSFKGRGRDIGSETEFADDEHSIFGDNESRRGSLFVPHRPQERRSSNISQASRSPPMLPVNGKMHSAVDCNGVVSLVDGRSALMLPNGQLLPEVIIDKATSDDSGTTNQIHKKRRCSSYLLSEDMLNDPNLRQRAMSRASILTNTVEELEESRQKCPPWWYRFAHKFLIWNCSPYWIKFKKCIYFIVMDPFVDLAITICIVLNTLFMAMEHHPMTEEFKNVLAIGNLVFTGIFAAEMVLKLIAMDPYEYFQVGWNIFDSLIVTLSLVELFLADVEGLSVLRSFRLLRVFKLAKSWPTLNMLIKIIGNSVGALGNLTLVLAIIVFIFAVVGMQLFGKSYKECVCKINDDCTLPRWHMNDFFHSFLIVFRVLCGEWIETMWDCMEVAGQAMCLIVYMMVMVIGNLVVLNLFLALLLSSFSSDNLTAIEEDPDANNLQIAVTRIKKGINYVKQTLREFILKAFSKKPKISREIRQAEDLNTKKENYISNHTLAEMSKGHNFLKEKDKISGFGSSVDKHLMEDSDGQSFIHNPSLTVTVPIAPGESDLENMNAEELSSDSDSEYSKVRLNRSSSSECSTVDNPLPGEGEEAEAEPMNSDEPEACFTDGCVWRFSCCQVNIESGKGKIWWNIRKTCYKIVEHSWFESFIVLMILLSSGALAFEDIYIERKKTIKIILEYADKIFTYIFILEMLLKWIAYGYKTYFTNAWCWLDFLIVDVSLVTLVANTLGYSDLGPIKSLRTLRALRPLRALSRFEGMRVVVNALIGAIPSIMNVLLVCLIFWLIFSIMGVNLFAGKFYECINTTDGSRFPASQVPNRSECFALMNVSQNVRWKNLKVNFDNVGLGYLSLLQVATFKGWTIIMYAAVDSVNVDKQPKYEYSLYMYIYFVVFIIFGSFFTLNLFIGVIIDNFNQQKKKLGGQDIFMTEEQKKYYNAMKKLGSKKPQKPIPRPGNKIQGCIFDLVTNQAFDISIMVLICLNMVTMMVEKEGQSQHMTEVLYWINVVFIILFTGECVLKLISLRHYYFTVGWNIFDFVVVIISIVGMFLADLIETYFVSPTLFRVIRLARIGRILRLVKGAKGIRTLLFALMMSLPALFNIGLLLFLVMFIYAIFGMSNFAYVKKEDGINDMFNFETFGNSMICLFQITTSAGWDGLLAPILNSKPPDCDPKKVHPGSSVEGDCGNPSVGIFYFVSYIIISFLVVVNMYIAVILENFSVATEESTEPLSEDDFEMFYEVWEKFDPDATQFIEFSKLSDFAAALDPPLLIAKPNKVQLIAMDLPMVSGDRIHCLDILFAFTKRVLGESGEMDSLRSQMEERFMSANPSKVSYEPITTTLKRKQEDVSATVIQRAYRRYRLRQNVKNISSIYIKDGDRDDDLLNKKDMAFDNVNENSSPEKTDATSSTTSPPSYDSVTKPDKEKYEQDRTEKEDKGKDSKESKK
Description: Ionworks Barracuda (IWB) Automated Patch Clamp Assay (Same Protocol for Both Hu Man and Mouse)
Human NaV1.7 currents were recorded in population patch-clamp mode with the IWB automated electrophysiology system (Molecular Devices, LLC, Sunnyvale, Calif.). Spiking HEK cells (without Kir2.1 transfection) were cultured and prepared for recordings as previously described for IonWorks Quattro testing^1. The external solution consisted of the following (in mM): NaCl 140, KCl 5, CaCl2 2, MgCl2 1, HEPES 10, and glucose 11, pH 7.4, with N-methyl-D-glucamine at 320 mOsmol. […] From a holding potential of −110 mV, currents were elicited by a train of 26 depolarizations of 150 ms duration to −20 mV at a frequency of 5 Hz. Cells were then clamped to −20 mV for a period of 4 minutes in the presence of a single concentration of test compound. Following this compound incubation period, cells were clamped to −110 mV for three seconds to recover unbound channels and put through the same 26 pulse voltage protocol as above. Peak inward current during the 26th pulse to −20 mV in the presence of compound was divided by the peak inward current evoked by the 26th pulse to −20 mV in the absence of compound to determine percent inhibition. Concentration-response curves of percent inhibition as a function of concentration were generated to calculate IC50 values as described in Kornecook, T. J.; Yin, R.; Altmann, S.; et al. Pharmacologic Characterization of AMG8379, a Potent and Selective Small Molecule Sulfonamide Antagonist of the Voltage-Gated Sodium Channel NaV1. 7.
The potency of the compounds of the present invention were evaluated on human NaV1.7 channels using the above described IonWorks Barracuda automated electrophysiology platform that evaluates the ability of compounds to block sodium conductance through NaV1.7 channels. A voltage-protocol that prosecutes both state-dependent as well as use-dependent inhibition was used as these modes of action are thought to be more relevant for the native state of NaV1.7 channels in pain sensing neurons in vivo.

[1] = human hepatocytes, 10 uM test compound, 72 hours, mRNA, percent of control (rifampin positive control)

Row | SMILES | CYP3A4 mRNA Induct Hu 10 uM POC (CYP3A4; [1]) [%] | IC50 (Human NaV1.7) [nM] | CYP3A4 mRNA Induct Hu 10 uM POC (CYP3A4; hepatocytes) [%]
1 | COc1cc([C@@H]2C[C@H]2COC(F)(F)F)c(F)cc1-n1c(=O)ccc2cc(S(=O)(=O)Nc3ccon3)ccc21 (atropisomer, axis not shown; (P)) [Example 32, (P)-1-(5-fluoro-2-methoxy-4-((1R,2R)-2-((trifluoromethoxy)methyl)cyclopropyl)phenyl)-N-(isoxazol-3-yl)-2-oxo-1,2-dihydroquinoline-6-sulfonamide] | 64.54 | 9 | 
2 | COc1cc([C@H]2C[C@H]2C2CC2)c(F)cc1-n1c(=O)ccc2cc(S(=O)(=O)Nc3ccon3)ccc21 (atropisomer, axis not shown; (P)) [Example 30, (P)-1-(4-((1S,2S)-[1,1′-bi(cyclopropan)]-2-yl)-5-fluoro-2-methoxyphenyl)-N-(isoxazol-3-yl)-2-oxo-1,2-dihydroquinoline-6-sulfonamide] |  | 26 | 60.34
3 | COc1cc([C@@H]2C[C@H]2C(F)(F)F)c(F)cc1-n1c(=O)ccc2cc(S(=O)(=O)Nc3nncs3)ccc21 (atropisomer, axis not shown; (P)) [Example 40, (P)-1-(5-fluoro-2-methoxy-4-((1R,2R)-2-(trifluoromethyl)cyclopropyl)phenyl)-2-oxo-N-(1,3,4-thiadiazol-2-yl)-1,2-dihydroquinoline-6-sulfonamide] |  | 8 | 
4 | COc1cc([C@H]2C[C@@H]2COC(F)(F)F)c(F)cc1-n1c(=O)ccc2cc(S(=O)(=O)Nc3ccon3)ccc21 (atropisomer, axis not shown; (P)) [Example 33, (P)-1-(5-fluoro-2-methoxy-4-((1S,2S)-2-((trifluoromethoxy)methyl)cyclopropyl)phenyl)-N-(isoxazol-3-yl)-2-oxo-1,2-dihydroquinoline-6-sulfonamide] | 139.9 | 4 | 
5 | COc1cc([C@@H]2C[C@H]2C(F)(F)F)c(Cl)cc1-n1c(=O)ccc2cc(S(=O)(=O)Nc3cccnn3)ccc21 (atropisomer, axis not shown; (P)) [Example 14, (P)-1-(5-chloro-2-methoxy-4-((1R,2R)-2-(trifluoromethyl)cyclopropyl)phenyl)-2-oxo-N-(pyridazin-3-yl)-1,2-dihydroquinoline-6-sulfonamide] | 46.59 | 19 | 
6 | COc1cc([C@@H]2C[C@H]2C(F)(F)F)c(C)cc1-n1c(=O)ccc2cc(S(=O)(=O)Nc3ccon3)ccc21 (atropisomer, axis not shown; (P)) [Example 26, (P)-N-(isoxazol-3-yl)-1-(2-methoxy-5-methyl-4-((1R,2R)-2-(trifluoromethyl)cyclopropyl)phenyl)-2-oxo-1,2-dihydroquinoline-6-sulfonamide] | 35.39 | 19 | 
7 | COc1cc([C@@H]2C[C@H]2C(F)(F)F)c(F)cc1-n1c(=O)ccc2cc(S(=O)(=O)Nc3ccon3)c(F)cc21 (single isomer, unassigned) [Example 45] | 24.57 | 8 | 

From patent US11807634B2, “Cyclopropyl dihydroquinoline sulfonamide compounds” (AMGEN INC., priority 2020, dated 2023)
